Experimental data from patent US12510524B2, “Compositions containing cannabinoid analog conjugates and methods of use” (priority 2014, dated 2025).
Where “and” joins values, the source holds several entries; their conditions need not be identical. Equal values may be shown once.

How the values were obtained:
Type in all cases: cell-based
DLBCL cancer cell lines = assay: MTS cell viability assay, DLBCL cell lines as a group; conditions: MTS; for effect on the viability of DLBCL cancer cell lines: EJ, U2932, CJ and LY19, 72 h incubation, FIGS. 13-16
Protocol: The effects of SR141716 and VYR206 were analyzed. MTS assays for cell viability (72 h incubation) were performed on diffuse large B-cell lymphoma (DLBCL) cells—LR, MS, RC and DOHH2 (FIGS. 18A-18D) and mantle cell lymphoma (MCL) cells—Jeko, Mino, Rec-1 and JMP1 (FIGS. 19A-19D).

Toledo cell line = assay: High throughput screening of cell viability, Toledo; conditions: 72-hour incubation
Protocol: (§1) High throughput screening ([…]) assessment of cell viability in 16 DLBCL (FIGS. 20A and 20B) and 8 MCL (FIG. 20C) cell lines were assessed following treatment a 72-hour incubation of the cell lines with cannabidiol, which was obtained as CBD in a coconut oil extract. Cell viability, 90% of the all cells tested, remained viable in a concentration range of 0-5 μM CBD. Complete cell death was obtained at 25 μM CBD concentration only for two cancer cell lines, HT and EJ (FIG. 20B); 50 μM CBD concentration gave a complete cell death viability in seven cell lines MZ, HF, HB, CJ, MS, Toledo and EJ (FIGS. 20A and 20B).

HT cancer cell line = assay: High throughput screening of cell viability, HT; conditions: 72-hour incubation
Protocol: as §1

CB2 receptor expression = assay: Blot analysis of CB2 expression in DLBCL and MCL cell lines; conditions: FIGS. 21B and 21C
Protocol: The effect of different amounts of combinations of VYR206 and CBD on various DLBCL and MCL cell lines were evaluated by immunoblot analysis. Immunoblot analysis of cell lysates from various DLBCL and MCL cell lines was performed to show effects on expression of CBi and CB2 receptors with the expression of β-actin as the control for sample loading (FIGS. 21A-21D), with each cell line identified by respective initials.

[1] = tested on: DLBCL (RC) and MCL (Mino) cancer cell lines; assay: MTS cell viability assay, CBD alone and in combination with chemotherapeutics; conditions: at the given amounts, 72 h incubation
Protocol: The formazan dye is quantified by measuring the absorbance at 490-500 nm.
Cell viability assays (MTS) were performed to determine the viability of DLBCL (RC) and MCL (Mino) cancer cell lines in vitro (72 hour-incubation) in the presence of CB2-agonist—CBD alone and in combination with ibrutinib. Cell viability assays (MTS) were performed to determine the viability of DLBCL (RC) and MCL (Mino) cancer cell lines in vitro (72 h incubation) in the presence of CBD alone and in combination with zanubrutinib (BGB). Cell viability assays (MTS) were performed to determine the viability of DLBCL (RC) and MCL (Mino) cancer cell lines in vitro (72 h incubation) in the presence of CBD alone and in combination with carfilzomib (CFZ). Cell viability assays (MTS) were performed to determine the viability of DLBCL (RC) and MCL (Mino) cancer cell lines in vitro (72 h incubation) in the presence CBD alone and in combination with tumorex (TMX).

CJ cell line = assay: High throughput screening of cell viability, CJ; conditions: 72-hour incubation
Protocol: as §1

[2] = tested on: mantle cell lymphoma cancer cells (Mino, Jeko, SP53, Maver-1Z138, JMP-1, Rec-1 and PF-1); assay: High throughput screening of cell viability, MCL cell lines; conditions: concentration range from 15 μM to 25 μM; FIG. 20C
Protocol: as §1

MCA cell line = assay: High throughput screening of cell viability, MCA; conditions: 72-hour incubation, read-out: concentration range at which 50% cell viability was reached
Protocol: as §1

MZ cell line = assay: High throughput screening of cell viability, MZ; conditions: 72-hour incubation
Protocol: as §1

[3] = tested on: 16 DLBCL and 8 MCL cell lines; assay: High throughput screening of cell viability, all cell lines; conditions: all cells tested; concentration range 0-5 μM; 72-hour incubation
Protocol: as §1

[4] = tested on: cleaved caspase 3 and cleaved PARP in BJAB cells; assay: Western analysis of apoptosis induction in BJAB cells; conditions: 24 hrs
Protocol: No activation of apoptosis in untreated cells (control not shown). […] At 12.5 μM CBD, there was significant apoptosis induction in cleaved PARP expression. The effect of CBD on both cleaved caspase 3 (FIG. 27C) and cleaved PARP expression (FIG. 27D) was analyzed using Western analysis. Expression of the β-actin (FIG. 27E) was used as a control for equal loading.

MT cell line = assay: High throughput screening of cell viability, MT; conditions: 72-hour incubation, read-out: concentration range at which 50% cell viability was reached
Protocol: as §1

Cancer cell line DOHH2 = assay: High throughput screening of cell viability, DOHH2; conditions: lower concentration (0-25 μM)
Protocol: as §1

LP cell line = assay: High throughput screening of cell viability, LP; conditions: 72-hour incubation, read-out: concentration range at which 50% cell viability was reached
Protocol: as §1

HB cell line = assay: High throughput screening of cell viability, HB; conditions: 72-hour incubation
Protocol: as §1

HF cell line = assay: High throughput screening of cell viability, HF; conditions: 72-hour incubation
Protocol: as §1

EJ cancer cell line = assay: High throughput screening of cell viability, EJ; conditions: 72-hour incubation
Protocol: as §1

MS cell line = assay: High throughput screening of cell viability, MS; conditions: 72-hour incubation
Protocol: as §1

cleaved PARP in RC cells = assay: Immunoblot of apoptosis induction in RC cells; conditions: 24 hrs
[5] = read-out: concentration range at which 50% cell viability was reached

CN1CCCCC1Cn1cc(C(=O)c2cc([N+](=O)[O-])ccc2I)c2ccccc21 (centres unmarked) [AM 1241]
effect on the viability of DLBCL cancer cell lines (DLBCL cancer cell lines): significant effect

C=C(C)[C@@H]1CCC(C)=C[C@H]1c1c(O)cc(CCCCC)cc1O [CBD, cannabidiol]
concentration giving complete cell death (Toledo cell line): 50 µM | concentration giving complete cell death (HT cancer cell line): 25 µM | CB2 expression (CB2 receptor expression): modulation | viability, agents individually [1]: modest reduction in viability | concentration giving complete cell death (CJ cell line): 50 µM | IC50 (CJ cell line; [5]): 15 to 20 µM | sensitivity of MCL cancer cells [2]: less sensitive | IC50 (MCA cell line): 15 to 20 µM | concentration giving complete cell death (MZ cell line): 50 µM | IC50 (MZ cell line; [5]): 15 to 20 µM | cell viability [3]: 90% | concentration with significant apoptosis induction in cleaved PARP expression [4]: 12.5 µM | cleaved caspases 3 and cleaved PARP ([4]; increasing concentration): concentration-dependent increase | IC50 (MT cell line): 15 to 20 µM | susceptibility (Cancer cell line DOHH2): less susceptible | IC50 (LP cell line): 15 to 20 µM | concentration giving complete cell death (HB cell line): 50 µM | IC50 (HB cell line; [5]): 15 to 20 µM | concentration giving complete cell death (HF cell line): 50 µM | concentration giving complete cell death (EJ cancer cell line): 50 µM and 25 µM | IC50 (EJ cancer cell line; [5]): 15 to 20 µM | concentration giving complete cell death (MS cell line): 50 µM | viability response compared with VYR206 (DLBCL cancer cell lines; LY19 and LR, alone and in combination, 72 h): generally the same response as VYR206 | concentration with significant apoptosis induction in cleaved PARP expression (cleaved PARP in RC cells): 12.5 µM

CCNC1(C(N)=O)CCN(c2ncnc3c2nc(-c2ccccc2Cl)n3-c2ccc(Cl)cc2)CC1 [CP945,598]
effect on the viability of DLBCL cancer cell lines (DLBCL cancer cell lines): significant results depending on the specific cell line
